Data published in US10947271B2, “Antibacterial agents” (THE UNIVERSITY OF QUEENSLAND, priority 2014, dated 2021).

How the values were obtained:
Type in all cases: cell-based
Conditions in all cases: 24 h incubation, visual reading
[1] = test system: Streptococcus pneumoniae MDR ATCC 700677; test: MIC assay, S. pneumoniae MDR ATCC 700677
Outline: (§1)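 Twofold broth microdilution in Mueller Hinton broth; compounds tested from 8 μg/ml to 0.003 μg/ml. Mid-log cultures were inoculated at 5×10e5 CFU/mL and incubated 24 h at 37° C. MIC was the lowest concentration with no visible growth.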

[2] = test system: Enterococcus faecium MDR Van A ATCC 51559; test: MIC assay, E. faecium MDR Van A ATCC 51559
Outline: as §1

[3] = test system: Staphylococcus aureus MRSA ATCC 43300; test: MIC assay, S. aureus MRSA ATCC 43300
Outline: as §1

Minimum Inhibitory Concentration (MIC) S. pneumoniae ATCC 700677 [1]	Minimum Inhibitory Concentration (MIC) E. faecium ATCC51559 [2]	Minimum Inhibitory Concentration (MIC) Staph. aureus ATCC43300 [3]	SMILES
xxx (xxx = 0.1-<1)	xxx (xxx = 0.1-<1)	xxxx (xxxx = 0.01-<0.1)	CCCCCCCCCN1CCC(C(=O)N[C@@H](CCCCN)C(=O)N[C@@H](CCCCNC(=O)[C@H]2NC(=O)[C@H]3NC(=O)[C@H](NC(=O)[C@@H]4NC(=O)[C@H](CC(N)=O)NC(=O)[C@H](NC(=O)[C@@H](CC(C)C)NC)[C@H](O)c5ccc(c(Cl)c5)Oc5cc4cc(c5O[C@@H]4O[C@H](CO)[C@@H](O)[C@H](O)[C@H]4O[C@H]4C[C@](C)(N)[C@H](O)[C@H](C)O4)Oc4ccc(cc4Cl)[C@H]3O)c3ccc(O)c(c3)-c3c(O)cc(O)cc32)C(N)=O)CC1 [MCC_004825]
xxxxx (xxxxx = <0.01)	xxx (xxx = 0.1-<1)	xxxxx (xxxxx = <0.01)	CCCCCCCCCCC(=O)N[C@@H](CCCCN)C(=O)N[C@@H](CCCCN)C(=O)NCc1cccc(CNC(=O)[C@H]2NC(=O)[C@H]3NC(=O)[C@H](NC(=O)[C@@H]4NC(=O)[C@H](CC(N)=O)NC(=O)[C@H](NC(=O)[C@@H](CC(C)C)NC)[C@H](O)c5ccc(c(Cl)c5)Oc5cc4cc(c5O[C@@H]4O[C@H](CO)[C@@H](O)[C@H](O)[C@H]4O[C@H]4C[C@](C)(N)[C@H](O)[C@H](C)O4)Oc4ccc(cc4Cl)[C@H]3O)c3ccc(O)c(c3)-c3c(O)cc(O)cc32)c1 [MCC_005044]
xxxx (xxxx = 0.01-<0.1)	x (x = >4)	xxxx (xxxx = 0.01-<0.1)	CCCCCCCCCCC(=O)N[C@@H](CCCCN)C(=O)N[C@@H](CCCCNC(=O)[C@H]1NC(=O)[C@H]2NC(=O)[C@H](NC(=O)[C@@H]3NC(=O)[C@H](CC(N)=O)NC(=O)[C@H](NC(=O)[C@@H](CC(C)C)NC)[C@H](O)c4ccc(c(Cl)c4)Oc4cc3cc(c4O[C@@H]3O[C@H](CO)[C@@H](O)[C@H](O)[C@H]3O[C@H]3C[C@](C)(N)[C@H](O)[C@H](C)O3)Oc3ccc(cc3Cl)[C@H]2O)c2ccc(O)c(c2)-c2c(O)cc(O)cc21)C(N)=O [MCC_005062]
xxxxx (xxxxx = <0.01)	xx (xx = 1-4)	xxxxx (xxxxx = <0.01)	CCCCCCCCCCCC(=O)N[C@@H](CCCCN)C(=O)N[C@@H](CCCCNC(=O)[C@H]1NC(=O)[C@H]2NC(=O)[C@H](NC(=O)[C@@H]3NC(=O)[C@H](CC(N)=O)NC(=O)[C@H](NC(=O)[C@@H](CC(C)C)NC)[C@H](O)c4ccc(c(Cl)c4)Oc4cc3cc(c4O[C@@H]3O[C@H](CO)[C@@H](O)[C@H](O)[C@H]3O[C@H]3C[C@](C)(N)[C@H](O)[C@H](C)O3)Oc3ccc(cc3Cl)[C@H]2O)c2ccc(O)c(c2)-c2c(O)cc(O)cc21)C(N)=O [MCC_005063]
xxxx (xxxx = 0.01-<0.1)	x (x = >4)	xxxxx (xxxxx = <0.01)	CCCCCCCCCCC(=O)N[C@@H](CCCCN)C(=O)NCCNC(=O)[C@H]1NC(=O)[C@H]2NC(=O)[C@H](NC(=O)[C@@H]3NC(=O)[C@H](CC(N)=O)NC(=O)[C@H](NC(=O)[C@@H](CC(C)C)NC)[C@H](O)c4ccc(c(Cl)c4)Oc4cc3cc(c4O[C@@H]3O[C@H](CO)[C@@H](O)[C@H](O)[C@H]3O[C@H]3C[C@](C)(N)[C@H](O)[C@H](C)O3)Oc3ccc(cc3Cl)[C@H]2O)c2ccc(O)c(c2)-c2c(O)cc(O)cc21 [MCC_005163]
xxx (xxx = 0.1-<1)	x (x = >4)	xxx (xxx = 0.1-<1)	CCCCCCCC(=O)N[C@@H](CCCCN)C(=O)N[C@@H](CCCCN)C(=O)NCCNC(=O)[C@H]1NC(=O)[C@H]2NC(=O)[C@H](NC(=O)[C@@H]3NC(=O)[C@H](CC(N)=O)NC(=O)[C@H](NC(=O)[C@@H](CC(C)C)NC)[C@H](O)c4ccc(c(Cl)c4)Oc4cc3cc(c4O[C@@H]3O[C@H](CO)[C@@H](O)[C@H](O)[C@H]3O[C@H]3C[C@](C)(N)[C@H](O)[C@H](C)O3)Oc3ccc(cc3Cl)[C@H]2O)c2ccc(O)c(c2)-c2c(O)cc(O)cc21 [MCC_005164]
xxxx (xxxx = 0.01-<0.1)	xx (xx = 1-4)	xxxxx (xxxxx = <0.01)	CCCCCCCCCCC(=O)N[C@@H](CCCCN)C(=O)N[C@@H](CCCCN)C(=O)N[C@@H](CCCCN)C(=O)NCCNC(=O)[C@H]1NC(=O)[C@H]2NC(=O)[C@H](NC(=O)[C@@H]3NC(=O)[C@H](CC(N)=O)NC(=O)[C@H](NC(=O)[C@@H](CC(C)C)NC)[C@H](O)c4ccc(c(Cl)c4)Oc4cc3cc(c4O[C@@H]3O[C@H](CO)[C@@H](O)[C@H](O)[C@H]3O[C@H]3C[C@](C)(N)[C@H](O)[C@H](C)O3)Oc3ccc(cc3Cl)[C@H]2O)c2ccc(O)c(c2)-c2c(O)cc(O)cc21 [MCC_005182]
xxx (xxx = 0.1-<1)	x (x = >4)	xxx (xxx = 0.1-<1)	CCCCCCCC(=O)N[C@@H](CCCCN)C(=O)NCCNC(=O)[C@H]1NC(=O)[C@H]2NC(=O)[C@H](NC(=O)[C@@H]3NC(=O)[C@H](CC(N)=O)NC(=O)[C@H](NC(=O)[C@@H](CC(C)C)NC)[C@H](O)c4ccc(c(Cl)c4)Oc4cc3cc(c4O[C@@H]3O[C@H](CO)[C@@H](O)[C@H](O)[C@H]3O[C@H]3C[C@](C)(N)[C@H](O)[C@H](C)O3)Oc3ccc(cc3Cl)[C@H]2O)c2ccc(O)c(c2)-c2c(O)cc(O)cc21 [MCC_005183]
xxx (xxx = 0.1-<1)	xx (xx = 1-4)	xxx (xxx = 0.1-<1)	CCCCCCCC(=O)N[C@@H](CCCCN)C(=O)N[C@@H](CCCCN)C(=O)NCCCNC(=O)[C@H]1NC(=O)[C@H]2NC(=O)[C@H](NC(=O)[C@@H]3NC(=O)[C@H](CC(N)=O)NC(=O)[C@H](NC(=O)[C@@H](CC(C)C)NC)[C@H](O)c4ccc(c(Cl)c4)Oc4cc3cc(c4O[C@@H]3O[C@H](CO)[C@@H](O)[C@H](O)[C@H]3O[C@H]3C[C@](C)(N)[C@H](O)[C@H](C)O3)Oc3ccc(cc3Cl)[C@H]2O)c2ccc(O)c(c2)-c2c(O)cc(O)cc21 [MCC_005196]
xxxx (xxxx = 0.01-<0.1)	xx (xx = 1-4)	xxxx (xxxx = 0.01-<0.1)	CCCCCCCCCCC(=O)N[C@@H](CCCCN)C(=O)NCCCNC(=O)[C@H]1NC(=O)[C@H]2NC(=O)[C@H](NC(=O)[C@@H]3NC(=O)[C@H](CC(N)=O)NC(=O)[C@H](NC(=O)[C@@H](CC(C)C)NC)[C@H](O)c4ccc(c(Cl)c4)Oc4cc3cc(c4O[C@@H]3O[C@H](CO)[C@@H](O)[C@H](O)[C@H]3O[C@H]3C[C@](C)(N)[C@H](O)[C@H](C)O3)Oc3ccc(cc3Cl)[C@H]2O)c2ccc(O)c(c2)-c2c(O)cc(O)cc21 [MCC_005198]
xxxx (xxxx = 0.01-<0.1)	xx (xx = 1-4)	xxxx (xxxx = 0.01-<0.1)	CCCCCCCCC(=O)N[C@@H](CCCCN)C(=O)N[C@@H](CCCCN)C(=O)NCCCNC(=O)[C@H]1NC(=O)[C@H]2NC(=O)[C@H](NC(=O)[C@@H]3NC(=O)[C@H](CC(N)=O)NC(=O)[C@H](NC(=O)[C@@H](CC(C)C)NC)[C@H](O)c4ccc(c(Cl)c4)Oc4cc3cc(c4O[C@@H]3O[C@H](CO)[C@@H](O)[C@H](O)[C@H]3O[C@H]3C[C@](C)(N)[C@H](O)[C@H](C)O3)Oc3ccc(cc3Cl)[C@H]2O)c2ccc(O)c(c2)-c2c(O)cc(O)cc21 [MCC_005199]
xx (xx = 1-4)	x (x = >4)	xx (xx = 1-4)	CCCCCCCC(=O)N[C@@H](CCCCN)C(=O)N[C@@H](CCCCNC(=O)[C@H]1NC(=O)[C@H]2NC(=O)[C@H](NC(=O)[C@@H]3NC(=O)[C@H](CC(N)=O)NC(=O)[C@H](NC(=O)[C@@H](CC(C)C)NC)[C@H](O)c4ccc(c(Cl)c4)Oc4cc3cc(c4O[C@@H]3O[C@H](CO)[C@@H](O)[C@H](O)[C@H]3O[C@H]3C[C@](C)(N)[C@H](O)[C@H](C)O3)Oc3ccc(cc3Cl)[C@H]2O)c2ccc(O)c(c2)-c2c(O)cc(O)cc21)C(=O)O [MCC_005222]
xxxx (xxxx = 0.01-<0.1)	xx (xx = 1-4)	xxxx (xxxx = 0.01-<0.1)	CCCCCCCCCCCC(=O)N[C@@H](CCCCN)C(=O)N[C@@H](CCCCNC(=O)[C@H]1NC(=O)[C@H]2NC(=O)[C@H](NC(=O)[C@@H]3NC(=O)[C@H](CC(N)=O)NC(=O)[C@H](NC(=O)[C@@H](CC(C)C)NC)[C@H](O)c4ccc(c(Cl)c4)Oc4cc3cc(c4O[C@@H]3O[C@H](CO)[C@@H](O)[C@H](O)[C@H]3O[C@H]3C[C@](C)(N)[C@H](O)[C@H](C)O3)Oc3ccc(cc3Cl)[C@H]2O)c2ccc(O)c(c2)-c2c(O)cc(O)cc21)C(=O)O [MCC_005224]
xx (xx = 1-4)	x (x = >4)	xx (xx = 1-4)	CCCCCCCC(=O)N[C@@H](CCCCN)C(=O)N[C@@H](CCCCN)C(=O)N[C@@H](CCCCNC(=O)[C@H]1NC(=O)[C@H]2NC(=O)[C@H](NC(=O)[C@@H]3NC(=O)[C@H](CC(N)=O)NC(=O)[C@H](NC(=O)[C@@H](CC(C)C)NC)[C@H](O)c4ccc(c(Cl)c4)Oc4cc3cc(c4O[C@@H]3O[C@H](CO)[C@@H](O)[C@H](O)[C@H]3O[C@H]3C[C@](C)(N)[C@H](O)[C@H](C)O3)Oc3ccc(cc3Cl)[C@H]2O)c2ccc(O)c(c2)-c2c(O)cc(O)cc21)C(=O)O [MCC_005225]
